Data: patent US6737383B1, “Herbicidal oxadiazolidines” (priority 1999, dated 2004)

Key:
[1] = tested on: blackgrass; experiment: Test B pre/postemergence blackgrass; format: in vivo, Alopecurus myosuroides
Procedure, shortened: (§1)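 Test chemicals in a non-phytotoxic solvent mixture with surfactant were sprayed preemergence onto planted seeds and postemergence onto plants 2 to 18 cm tall (1- to 4-leaf stage). After twelve to sixteen days in a greenhouse, injury was visually rated against untreated controls from 0 (no effect) to 10 (complete control).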

[2] = tested on: surinam grass; experiment: Test B pre/postemergence surinam grass; format: in vivo, Brachiaria decumbens
Procedure, shortened: as §1

[3] = tested on: bedstraw; experiment: Test B pre/postemergence bedstraw; format: in vivo, Galium aparine; conditions: Postemergence
Procedure, shortened: as §1

[4] = tested on: bamyardgrass; experiment: Test B flood test barnyardgrass; format: in vivo, Echinochloa crus-galli
Procedure, shortened: (§2)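 Plants were grown to the 2-leaf stage before treatment with test chemical, then held in a greenhouse for twelve to sixteen days. Injury was visually rated against untreated controls on a 0–10 scale, where 0 is no effect and 10 is complete control.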

[5] = tested on: smallflower flatsedge; experiment: Test B flood test smallflower flatsedge; format: in vivo, Cyperus difformis
Procedure, shortened: as §2

[6] = tested on: purple nutsedge; experiment: Test B pre/postemergence purple nutsedge; format: in vivo, Cyperus rotundus
Procedure, shortened: as §1

[7] = tested on: giant foxtail; experiment: Test B pre/postemergence giant foxtail; format: in vivo, Setaria faberii
Procedure, shortened: as §1

[8] = tested on: morningglory; experiment: Test B pre/postemergence morningglory; format: in vivo, Ipomoea hederacea
Procedure, shortened: as §1

[9] = tested on: wild oat; experiment: Test B pre/postemergence wild oat; format: in vivo, Avena fatua
Procedure, shortened: as §1

[10] = tested on: pigweed; experiment: Test B pre/postemergence pigweed; format: in vivo, Amaranthus retroflexus
Procedure, shortened: as §1

[11] = tested on: cocklebur; experiment: Test B pre/postemergence cocklebur; format: in vivo, Xanthium strumarium
Procedure, shortened: as §1

[12] = tested on: wheat; experiment: Test B pre/postemergence wheat; format: in vivo, Triticum aestivum
Procedure, shortened: as §1

[13] = tested on: soybean; experiment: Test B pre/postemergence soybean; format: in vivo, Glycine max
Procedure, shortened: as §1

[14] = tested on: velvetleaf; experiment: Test B pre/postemergence velvetleaf; format: in vivo, Abutilon theophrasti
Procedure, shortened: as §1

[15] = tested on: crabgrass; experiment: Test B pre/postemergence crabgrass; format: in vivo, Digitaria sanguinalis
Procedure, shortened: as §1

[16] = tested on: rice; experiment: Test B flood test rice; format: in vivo, Oryza sativa
Procedure, shortened: as §2

[17] = Postemergence, Rate 62 g/ha, scale 0 to 10, 0 is no effect, 10 is complete control
[18] = Postemergence, Rate 125 g/ha, scale of 0 to 10 where 0 is no effect and 10 is complete control
[19] = Postemergence, Rate 250 g/ha, scale of 0 to 10, 0 is no effect, 10 is complete control
[20] = Postemergence, Rate 500 g/ha, scale of 0 to 10 where 0 is no effect and 10 is complete control
[21] = Preemergence, Rate 62 g/ha, scale 0 to 10 (0 no effect, 10 complete control)
[22] = Preemergence, Rate 125 g/ha, scale of 0 to 10 where 0 is no effect and 10 is complete control
[23] = Preemergence, Rate 250 g/ha, scale 0 to 10 (0 no effect, 10 complete control)
[24] = Preemergence, Rate 500 g/ha, scale of 0 to 10 where 0 is no effect and 10 is complete control
[25] = Rate 62 g/ha, flood test species, Pre-emergence, visual evaluation after twelve to sixteen days
[26] = Rate 125 g/ha, under heading Pre-emergence, flood test species, visual evaluation after twelve to sixteen days
[27] = Rate 250 g/ha, Pre-emergence (flood test species), scale 0 to 10, 0 is no effect, 10 is complete control
[28] = Rate 500 g/ha, Pre-emergence section of Table B, 0 to 10 scale (0 no effect, 10 complete control)

With `CCOC(Cn1c(=O)on(C(=O)N(c2ccc(Cl)cc2)C(C)C)c1=O)OCC` [Compound 633] the “Plant response rating, Blackgrass” value [1, 17] was 0, the “Plant response rating, Blackgrass” value [1, 18] was 0 and the “Blackgrass plant response rating” value [1, 19] was 4. The “Plant response rating, Blackgrass” value [1, 20] was 8, the “Blackgrass plant response rating” value [1, 21] was 0 and the “Blackgrass plant response rating” value [1, 22] was 3. The “Plant response rating, Blackgrass” value [1, 23] was 5, the “Plant response rating, Blackgrass” value [1, 24] was 7 and the “Plant response rating, B. signalgrass” value [2, 17] was 0. The “Plant response rating, B. signalgrass” value [2, 18] was 0, the “B. signalgrass plant response rating” value [2, 19] was 0 and the “Plant response rating, B. signalgrass” value [2, 20] was 5. For the same compound, the “B. signalgrass plant response rating” value [2, 21] was 0, the “B. signalgrass plant response rating” value [2, 22] was 3 and the “Plant response rating, B. signalgrass” value [2, 23] was 6. The “Plant response rating, B. signalgrass” value [2, 24] was 6, the “Plant response rating, Bedstraw” value ([3]; Rate 62 g/ha, scale 0 to 10, 0 is no effect, 10 is complete control) was 0 and the “Plant response rating, Bedstraw” value ([3]; Rate 125 g/ha, scale of 0 to 10 where 0 is no effect and 10 is complete control) was 0. For the same compound, the “Bedstraw plant response rating” value ([3]; Rate 250 g/ha, scale of 0 to 10, 0 is no effect, 10 is complete control) was 0, the “Plant response rating, Barnyardgrass (0 to 10 scale, 0 is no effect, 10 is complete control)” value [4, 25] was 0 and the “Barnyardgrass plant response rating (0 to 10 scale, 0 is no effect, 10 is complete control)” value [4, 26] was 0. For the same compound, the “Barnyardgrass plant response rating” value [4, 27] was 0, the “Barnyardgrass plant response rating” value [4, 28] was 0 and the “Plant response rating, S. Flatsedge (0 to 10 scale, 0 is no effect, 10 is complete control)” value [5, 25] was 0. The “S. Flatsedge plant response rating (0 to 10 scale, 0 is no effect, 10 is complete control)” value [5, 26] was 0, the “S. Flatsedge plant response rating” value [5, 27] was 0 and the “S. Flatsedge plant response rating” value [5, 28] was 0. For the same compound, the “Plant response rating, Nutsedge” value [6, 17] was 0, the “Plant response rating, Nutsedge” value [6, 18] was 0 and the “Nutsedge plant response rating” value [6, 19] was 0. The “Plant response rating, Nutsedge” value [6, 20] was 0, the “Nutsedge plant response rating” value [6, 21] was 0 and the “Nutsedge plant response rating” value [6, 22] was 0. For the same compound, the “Plant response rating, Nutsedge” value [6, 23] was 0, the “Plant response rating, Nutsedge” value [6, 24] was 0 and the “Plant response rating, Giant foxtail” value [7, 17] was 0. The “Plant response rating, Giant foxtail” value [7, 18] was 0, the “Giant foxtail plant response rating” value [7, 19] was 3 and the “Plant response rating, Giant foxtail” value [7, 20] was 8. For the same compound, the “Giant foxtail plant response rating” value [7, 21] was 6, the “Giant foxtail plant response rating” value [7, 22] was 9 and the “Plant response rating, Giant foxtail” value [7, 23] was 10. For the same compound, the “Plant response rating, Giant foxtail” value [7, 24] was 10, the “Plant response rating, Morningglory” value [8, 17] was 1 and the “Plant response rating, Morningglory” value [8, 18] was 2. For the same compound, the “Morningglory plant response rating” value [8, 19] was 5, the “Plant response rating, Morningglory” value [8, 20] was 5 and the “Morningglory plant response rating” value [8, 21] was 0. The “Morningglory plant response rating” value [8, 22] was 0, the “Plant response rating, Morningglory” value [8, 23] was 0 and the “Plant response rating, Morningglory” value [8, 24] was 0. For the same compound, the “Plant response rating, Wild oats” value [9, 17] was 0, the “Plant response rating, Wild oats” value [9, 18] was 0 and the “Wild oats plant response rating” value [9, 19] was 0. The “Wild oats plant response rating” value [9, 21] was 0, the “Wild oats plant response rating” value [9, 22] was 2 and the “Plant response rating, Wild oats” value [9, 23] was 3. The “Plant response rating, Wild oats” value [9, 24] was 5, the “Plant response rating, Redroot pigweed” value [10, 17] was 0 and the “Plant response rating, Redroot pigweed” value [10, 18] was 0. The “Redroot pigweed plant response rating” value [10, 19] was 1, the “Redroot pigweed plant response rating” value [10, 21] was 0 and the “Redroot pigweed plant response rating” value [10, 22] was 0. The “Plant response rating, Redroot pigweed” value [10, 23] was 2, the “Plant response rating, Redroot pigweed” value [10, 24] was 4 and the “Plant response rating, Cocklebur” value [11, 17] was 0. For the same compound, the “Plant response rating, Cocklebur” value [11, 18] was 0, the “Cocklebur plant response rating” value [11, 19] was 0 and the “Plant response rating, Cocklebur” value [11, 20] was 0. The “Cocklebur plant response rating” value [11, 21] was 0, the “Cocklebur plant response rating” value [11, 22] was 0 and the “Plant response rating, Cocklebur” value [11, 23] was 0. For the same compound, the “Plant response rating, Cocklebur” value [11, 24] was 0, the “Plant response rating, Wheat” value [12, 17] was 0 and the “Plant response rating, Wheat” value [12, 18] was 0. For the same compound, the “Wheat plant response rating” value [12, 19] was 0, the “Wheat plant response rating” value [12, 21] was 0 and the “Wheat plant response rating” value [12, 22] was 0. The “Plant response rating, Wheat” value [12, 23] was 0, the “Plant response rating, Wheat” value [12, 24] was 0 and the “Plant response rating, Soybean” value [13, 17] was 2. The “Plant response rating, Soybean” value [13, 18] was 2, the “Soybean plant response rating” value [13, 19] was 2 and the “Soybean plant response rating” value [13, 21] was 0. The “Soybean plant response rating” value [13, 22] was 0, the “Plant response rating, Soybean” value [13, 23] was 0 and the “Plant response rating, Soybean” value [13, 24] was 0. For the same compound, the “Plant response rating, Velvetleaf” value [14, 17] was 0, the “Plant response rating, Velvetleaf” value [14, 18] was 0 and the “Velvetleaf plant response rating” value [14, 19] was 0. For the same compound, the “Velvetleaf plant response rating” value [14, 21] was 0, the “Velvetleaf plant response rating” value [14, 22] was 0 and the “Plant response rating, Velvetleaf” value [14, 23] was 0. The “Plant response rating, Velvetleaf” value [14, 24] was 0, the “Plant response rating, Crabgrass” value [15, 17] was 0 and the “Plant response rating, Crabgrass” value [15, 18] was 0. For the same compound, the “Crabgrass plant response rating” value [15, 19] was 3, the “Plant response rating, Crabgrass” value [15, 20] was 9 and the “Crabgrass plant response rating” value [15, 21] was 5. For the same compound, the “Crabgrass plant response rating” value [15, 22] was 8, the “Plant response rating, Crabgrass” value [15, 23] was 9 and the “Plant response rating, Crabgrass” value [15, 24] was 9. The “Plant response rating, Rice (0 to 10 scale, 0 is no effect, 10 is complete control)” value [16, 25] was 0, the “Rice plant response rating (0 to 10 scale, 0 is no effect, 10 is complete control)” value [16, 26] was 0 and the “Rice plant response rating” value [16, 27] was 0. For the same compound, the “Rice plant response rating” value [16, 28] was 0.
